Reference: PubChem BioAssay (NCI)
Values joined by “and” are separate entries in the source; they are usually repeats but may differ in a detail not shown here. Identical values can stand only once.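 Each compound was tested at five concentrations against cells in 96-well plates for 48 hours. Here, GI50 denotes the concentration required for 50% inhibition of growth. At the TGI there is no net growth.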

What was measured:
Assay in all cases: NCI tumour cell line growth inhibition, 48 h
HT29 colon = system: HT29 colon
SF-295 CNS = system: SF-295 CNS
OVCAR-3 ovarian = system: OVCAR-3 ovarian
A549 NSCLC = system: A549 NSCLC
SK-MEL-5 melanoma = system: SK-MEL-5 melanoma
CCRF-CEM leukemia = system: CCRF-CEM leukemia
IGROV1 ovarian = system: IGROV1 ovarian
TK-10 renal = system: TK-10 renal

| Structure (SMILES) | GI50 (HT29 colon) | TGI (HT29 colon) | GI50 (SF-295 CNS) [µM] | TGI (SF-295 CNS) [µM] | GI50 (OVCAR-3 ovarian) [nM] | TGI (OVCAR-3 ovarian) [µM] | GI50 (A549 NSCLC) | TGI (A549 NSCLC) | GI50 (SK-MEL-5 melanoma) [µM] | TGI (SK-MEL-5 melanoma) [µM] | GI50 (CCRF-CEM leukemia) [nM] | TGI (CCRF-CEM leukemia) [µM] | GI50 (IGROV1 ovarian) | TGI (IGROV1 ovarian) | GI50 (TK-10 renal) [µM] | TGI (TK-10 renal) [µM] |
| --- | --- | --- | --- | --- | --- | --- | --- | --- | --- | --- | --- | --- | --- | --- | --- | --- |
| O=C1/C(=C/c2ccc([N+](=O)[O-])o2)Oc2ccccc21 | 613 nM | 2.84 µM | 3.43 | 13.8 | 1230 | 2.62 | 3.23 µM | 12.3 µM | 1.69 | 3.29 | 338 | 1.38 | 1370 nM | 3.62 µM | 1.59 | 3.02 |
| COc1cc(-n2cc(-c3ccc(F)cc3)[nH]c2=S)cc(OC)c1OC | > 100000 nM | > 100 µM | 47 | > 100 | > 100000 | > 100 | > 100 µM | > 100 µM | > 100 | > 100 | > 100000 | > 100 | 41600 nM | > 100 µM | > 100 | > 100 |
| O=C(NCC(=O)N1CC[C@H](NC2CCC(O)(c3ccc(-c4ncccn4)cn3)CC2)C1)c1cccc(C(F)(F)F)c1 (stereo not given in full) | 53000 nM | > 100 µM | 38.2 | > 100 | 94900 | > 100 | > 100 µM | > 100 µM | 18.2 | 46.6 | 88600 | > 100 | > 100000 nM | > 100 µM | > 100 | > 100 |
| CO/N=C(\COc1ccc2c(c1)oc(=O)c1cc(OC)ccc12)c1cccc(OC)c1 | > 100000 nM | > 100 µM | > 100 | > 100 | > 100000 | > 100 | > 100 µM | > 100 µM | > 100 | > 100 | > 100000 | > 100 | > 100000 nM | > 100 µM | > 100 | > 100 |
| c1ccc2c(Nc3ccc(Oc4ccc(Nc5c6ccccc6nc6ccccc56)cc4)cc3)c3ccccc3nc2c1 | 237 nM and 212 nM | 0.569 µM and 0.496 µM |  | 0.829 |  | 0.366 | 0.265 µM and 0.227 µM | 0.792 µM and 0.54 µM |  | 3.4 | 217 | 0.719 | 292 nM and 1160 nM | 1.21 µM and 2.64 µM |  | 0.97 |
| CCCC(=O)Nc1cc([N+](=O)[O-])c([N+](=O)[O-])cc1OC |  | 29.3 µM |  | 21.7 |  | 27.8 |  | 29.8 µM |  | 30.2 |  | 51.4 |  | 38.9 µM |  | 31 |
| CCOCC(=O)N[C@H]1CCc2cc(OC(=O)COCC)c(OC)c(OC)c2-c2ccc(SC)c(=O)cc21 |  | > 100 µM | 0.0198 |  |  | 0.0166 |  |  |  |  | 12.7 |  | 38.2 nM | > 100 µM | 14.9 | > 100 |
| CC(C)=CCc1ccc(O)c(=O)cc1C(C)C | 1510 nM | > 100 µM | 0.939 | > 36.9 | 654 | > 83.4 | 0.656 µM | > 100 µM | 0.582 | 4.08 | 485 | > 100 | 430 nM | 16.1 µM | 0.746 | > 100 |
| Cc1[nH]n(-c2ccc(S(=O)(=O)O)cc2)c(=O)c1N=Nc1ccccc1 |  | > 100 µM |  | > 100 |  | > 100 |  | > 100 µM |  | > 100 |  |  |  | > 100 µM |  | > 100 |
| CN1C(=O)c2cc([N+](=O)[O-])ccc2[C@H]2C(=O)c3cc4c(cc3[C@H]21)OCO4 | 179 nM | > 43.2 µM | < 0.01 | 1.01 | 75.1 | 0.455 | 0.115 µM | 1.88 µM | 0.0534 | 0.176 |  |  | 153 nM | 12 µM | 1.28 |  |
| O=C(Nc1cccc([N+](=O)[O-])c1)c1ccc2ccccc2c1O | 22000 nM | > 100 µM | 3.47 | > 82.8 | 2610 | 8.83 | 6.87 µM | > 100 µM | 1.75 | 6.41 | 2350 | > 35.1 | 13800 nM | 46 µM | 4.59 | > 47.4 |
| O=C1Nc2ccccc2/C1=C/c1ccccc1 |  | 48 µM |  | 36.1 |  | 33.7 |  | 90.7 µM |  | 26.1 |  | 71.6 |  | 33.1 µM |  | 45.1 |
| NC(N)=N/N=C(/c1ccccc1)c1ccc(Cl)cc1 | 2930 nM | 24.9 µM | 10.3 | > 100 | 2880 | 12.1 | 15.5 µM | > 100 µM | 5.97 | 44.9 | 3890 | > 100 | 10600 nM | 82.5 µM | 32 | > 100 |
| O=C1Nc2ccccc2/C1=C/c1cn(C(=O)c2c(Cl)cccc2Cl)c2ccccc12 | 3920 nM | 14.9 µM | 2.24 | 9.3 | 1650 | 3.65 | 3.23 µM | 17.6 µM | 7.52 | 20.4 | 337 | 15.6 |  |  | 10.4 | 56 |
| Cc1ccc(/C=C/C(=O)c2ccc(N)cc2)c(C)c1 |  |  | 19.8 | 40.2 |  |  | 17.6 µM | 37.5 µM | 9.47 | 21.6 |  |  | 1410 nM | 3.08 µM | 3.13 | 11.9 |
| CN(C)c1ccc(/C=C/c2ccnc3ccccc23)cc1N |  | 17.7 µM |  | 27.7 |  | 10.2 |  | 32.6 µM |  | 11.5 |  | > 100 |  |  |  | 20.2 |
| Oc1ccccc1Nc1nc2ccccc2c2occc12 |  |  | 3.71 | 16.1 | 2480 | 16.3 | 14.5 µM | 27.5 µM | 6.1 | 19.4 |  |  | 61.4 nM | 15.8 µM | 1.9 | 6.65 |
| COc1cc(C(=O)/C=C/c2c(-c3ccc(F)cc3)nc3ncccn23)cc(OC)c1OC | 2520 nM | 6.25 µM | 2.43 | 6.53 | 1400 | 3.64 | 3.34 µM | > 100 µM |  |  | 4050 | > 100 | 1930 nM | 9.53 µM | 3.25 | 22.6 |
